# Source: US10399944B2, “Pyridin-2-one derivatives of formula (III) useful as EP3 receptor antagonists” (Janssen Pharmaceutica NV, priority 2017, dated 2019)
# What was measured:
# EP3 receptor [1] = biological target: T1, EP3 receptor (Homo sapiens, UniProt P43115); assay: CHO cell cAMP assay (forskolin and sulprostone stimulated, HTRF detection); type: cell-based; conditions: sulprostone 700 nM (EC80) and FSK 2 μM (EC70); read-out: CHO_cAMP IC50
# T1 sequence (P43115 1-390): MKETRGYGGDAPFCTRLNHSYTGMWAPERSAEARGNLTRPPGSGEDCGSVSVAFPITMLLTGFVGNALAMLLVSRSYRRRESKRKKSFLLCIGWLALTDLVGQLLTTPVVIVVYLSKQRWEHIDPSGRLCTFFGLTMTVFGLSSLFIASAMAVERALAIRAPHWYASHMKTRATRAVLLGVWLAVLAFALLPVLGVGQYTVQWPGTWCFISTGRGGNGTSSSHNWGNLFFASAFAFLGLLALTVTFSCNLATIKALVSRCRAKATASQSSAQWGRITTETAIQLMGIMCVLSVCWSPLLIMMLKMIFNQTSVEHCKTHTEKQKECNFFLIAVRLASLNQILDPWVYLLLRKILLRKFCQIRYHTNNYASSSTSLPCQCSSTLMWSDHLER
# EP3 receptor [2] = biological target: T1, EP3 receptor; assay: [3H]-PGE2 binding assay (EP3 competition binding, SPA beads)
# mEP3 = biological target: T2, mEP3 (Mus musculus, UniProt P30557); assay: mEP3 Ki used for dose targeting in the IVGTT model; type: binding
# T2 sequence (P30557 1-365): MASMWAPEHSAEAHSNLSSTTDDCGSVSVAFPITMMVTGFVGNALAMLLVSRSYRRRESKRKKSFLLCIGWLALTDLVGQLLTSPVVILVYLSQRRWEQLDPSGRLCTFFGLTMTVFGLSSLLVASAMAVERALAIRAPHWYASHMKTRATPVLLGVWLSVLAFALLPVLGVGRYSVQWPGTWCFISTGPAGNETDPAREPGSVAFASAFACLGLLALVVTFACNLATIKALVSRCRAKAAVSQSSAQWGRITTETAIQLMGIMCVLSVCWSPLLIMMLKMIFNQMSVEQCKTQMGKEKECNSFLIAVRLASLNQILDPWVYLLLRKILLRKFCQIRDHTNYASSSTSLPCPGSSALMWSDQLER
# male Sprague Dawley rats = assay: IV infused EP3 antagonists on circulating insulin and glucose in the sulprostone infusion IVGTT model; type: in vivo, rat; conditions: IV bolus plus infusion at 7×Ki and 10×Ki (targeted), with 3 μg/kg/min sulprostone, SD rats
# Text: IV Infused EP3 Antagonists on Circulating Insulin and Glucose in the Sulprostone Infusion IVGTT Model
# Jugular vein and carotid artery cannulated male Sprague Dawley rats (˜250 g, available from Charles River) were housed one rat per suspended cage in a temperature-controlled room with 12-hour light/dark cycle. The rats were allowed ad libitum access to water and maintained on a regular diet. Animals were acclimated for minimum 5 days prior to the start of the experiment. Experimental procedures were carried out in accordance with institutional standards for animal care and were approved by the institute's animal care and use committee.
# A blood sample for insulin and blood chemistry was collected at 20 min (t=−20) prior to the start of dosing with sulprostone and/or test compound (EP3 antagonist). […]
# Blood samples from all animals were collected into Heparin treated tubes. Background was measured via a glucometer at the 0 and 2 min time points to ensure that the animal received the glucose bolus. Plasma insulin was measured via a Meso Scale Discovery metabolic assay (available from Meso Scale). Plasma glucose, free fatty acid (FFA), triglycerides, cholesterol and ketones were measured on an OLYMPUS AU400E chemistry analyzer. Observations on animal health were recorded throughout the procedure. […]
smiles,measurement,setting,value
"CCn1ncc2c(F)cc(-c3ccc(C(/C=C4\OC(=O)NC4=O)C(C)C)c(=O)[nH]3)cc21 (racemic) [Compound #94, 5-(2-(6-(1-ethyl-4-fluoro-1H-indazol-6-yl)-2-oxo-1,2-dihydropyridin-3-yl)-3-methylbutylidene)-oxazolidine-2,4-dione]",IC50,EP3 receptor [1],181 nM
same,Ki,EP3 receptor [2],20 nM
CC(C)[C@H](C[C@@H]1OC(=O)NC1=O)c1ccc(-c2ccc3cccc(F)c3c2)[nH]c1=O (relative stereo) [Compound #81],IC50,EP3 receptor [1],15 nM
same,Ki,EP3 receptor [2],6 nM
"O=C1NC(=O)[C@]2(CCC[C@H](c3ccc(-c4ccc5ccccc5c4)[nH]c3=O)C2)O1 [Compound #189, Syn-7-(6-(naphthalen-2-yl)-2-oxo-1,2-dihydropyridin-3-yl)-1-oxa-3-azaspiro[4.5]decane-2,4-dione]",IC50,EP3 receptor [1],109 nM
same,Ki,EP3 receptor [2],16 nM
CC(C)[C@@H](c1ccc(-c2ccc3cccc(F)c3c2)[nH]c1=O)[C@H]1OC(=O)NC1=O (relative stereo) [Compound #59],IC50,EP3 receptor [1],611 nM
same,Ki,EP3 receptor [2],85 nM
"CCn1ncc2c(F)cc(-c3ccc([C@]4(O)CC[C@H]5C[C@@H]4NC5=O)c(=O)[nH]3)cc21 (stereo in doubt) [Compound #300, 4-(6-(1-ethyl-4-fluoro-1H-indazol-6-yl)-2-oxo-1,2-dihydropyridin-3-yl)-4-hydroxy-6-azabicyclo[3.2.1]octan-7-one]",Ki,EP3 receptor [2],5 nM
"CC(C)(C)C(/C=C1/OC(=O)NC1=O)C1C=CC(c2ccc3cccc(F)c3c2)=NC1=O (mixture of isomers) [compound 275, (E)-5-(2-(6-(8-fluoronaphthalen-2-yl)-2-oxo-2,3-dihydropyridin-3-yl)-3,3-dimethylbutylidene)oxazolidine-2,4-dione]",IC50,EP3 receptor [1],> 20000 nM
"CCn1cnc2c(F)c(-c3ccc(C(C=C4OC(=O)NC4=O)C(C)C)c(=O)[nH]3)ccc21 (stereo not drawn) [Compound #90, 5-(2-(6-(1-ethyl-4-fluoro-1H-benzo[d]imidazol-5-yl)-2-oxo-1,2-dihydropyridin-3-yl)-3-methylbutyli-dene)oxazolidine-2,4-dione]",IC50,EP3 receptor [1],5430 nM
same,Ki,EP3 receptor [2],633 nM
O=C1NC(=O)/C(=C\C2(c3ccc(-c4ccc5cccc(F)c5c4)[nH]c3=O)CC2)O1 [Compound #11],IC50,EP3 receptor [1],55 nM
same,Ki,EP3 receptor [2],28 nM
"CC(C)C(/C=C1\OC(=O)NC1=O)c1ccc(-c2ccc3cccc(F)c3c2)[nH]c1=O (racemic) [Compound #62, (Z)-5-(2-(6-(8-fluoronaphthalen-2-yl)-2-oxo-1,2-dihydropyridin-3-yl)-3-methylbutylidene)oxazolidine-2,4-dione]",Ki,mEP3,8.6 nM
same,suppression of glucose stimulate insulin secretion (GSIS) by sulprostone,male Sprague Dawley rats,reverse suppression of glucose stimulate insulin secretion (GSIS) by sulprostone
"O=C1NC(=O)C2(CCCC(c3ccc(-c4ccc5ccccc5c4)[nH]c3=O)C2)O1 (stereo not drawn) [compound 188, anti-7-(6-(naphthalen-2-yl)-2-oxo-1,2-dihydropyridin-3-yl)-1-oxa-3-azaspiro[4.5]decane-2,4-dione]",IC50,EP3 receptor [1],120 nM
same,Ki,EP3 receptor [2],15 nM
CC(=C1OC(=O)NC1=O)C(c1ccc(-c2ccc3cccc(F)c3c2)[nH]c1=O)C(C)C (stereo not drawn) [Compound 96],IC50,EP3 receptor [1],39 nM
same,Ki,EP3 receptor [2],17 nM
CCN1CCOc2cc(-c3ccc(C(/C=C4\OC(=O)NC4=O)C(C)C)c(=O)[nH]3)ccc21 (stereo not drawn) [Compound #121],IC50,EP3 receptor [1],363 nM
same,Ki,EP3 receptor [2],73 nM
"CCn1ncc2c(F)cc(-c3ccc(C(/C=C4\OC(=O)NC4=O)C4CCCCC4)c(=O)[nH]3)cc21 (stereo not drawn) [Compound #127, 5-(2-cyclohexyl-2-(6-(1-ethyl-4-fluoro-1H-indazol-6-yl)-2-oxo-1,2-dihydropyridin-3-yl)ethylidene) oxazolidine-2,4-dione]",IC50,EP3 receptor [1],548 nM
same,Ki,EP3 receptor [2],46 nM
"CCn1ncc2c(F)cc(-c3[nH]c(=O)c(C(/C=C4\OC(=O)NC4=O)C(C)C)cc3Cl)cc21 (racemic) [Compound #125, 5-(2-(5-chloro-6-(1-ethyl-4-fluoro-1H-indazol-6-yl)-2-oxo-1,2-dihydropyridin-3-yl)-3-methylbutylidene) oxazolidine-2,4-dione]",IC50,EP3 receptor [1],658 nM
same,Ki,EP3 receptor [2],487 nM
CCn1cc2c(F)c(-c3ccc(C(/C=C4/OC(=O)NC4=O)(CC)CC)c(=O)[nH]3)ccc2n1 [Compound #14],IC50,EP3 receptor [1],> 20000 nM
same,Ki,EP3 receptor [2],> 10000 nM
CC(C)C1(c2ccc(-c3ccc4cccc(F)c4c3)[nH]c2=O)C(=O)Nc2nncn21 (stereo not drawn) [Compound #156],IC50,EP3 receptor [1],508 nM
same,Ki,EP3 receptor [2],57 nM
CC(C)C(CC1OC(=O)NC1=O)c1ccc(-c2ccc3cccc(F)c3c2)[nH]c1=O (stereo not drawn) [compound 74],IC50,EP3 receptor [1],27 nM
same,Ki,EP3 receptor [2],8 nM
CCN1CCOc2ccc(-c3ccc(C(/C=C4\OC(=O)NC4=O)C(C)C)c(=O)[nH]3)cc21 (stereo not drawn) [Compound #137],IC50,EP3 receptor [1],218 nM
same,Ki,EP3 receptor [2],54 nM
CC(C)C(/C=C1\OC(=O)NC1=O)c1ccc(-c2ccc3cnsc3c2)[nH]c1=O (stereo not drawn) [Compound #93],IC50,EP3 receptor [1],9940 nM
same,Ki,EP3 receptor [2],1070 nM
"CC(C)C(/C=C1\OC(=O)NC1=O)c1ccc(-c2ccc3c(c2)OCCO3)[nH]c1=O (racemic) [Compound #85, (Z)-5-(2-(6-(2,3-dihydrobenzo[b][1,4]dioxin-6-yl)-2-oxo-2,3-dihydropyridin-3-yl)-3-methylbutylidene)oxazolidine-2,4-dione]",IC50,EP3 receptor [1],122 nM
same,Ki,EP3 receptor [2],44 nM
CC(C)C(c1ccc(-c2ccc3cccc(F)c3c2)[nH]c1=O)C1OC(=O)NC1=O (stereo not drawn) [compound 60],IC50,EP3 receptor [1],92 nM
same,Ki,EP3 receptor [2],27 nM
"CC(C)C(/C=C1\OC(=O)NC1=O)c1ccc(-c2ccc3c(c2)OC(F)(F)O3)[nH]c1=O (racemic) [Compound #276, (Z)-5-(2-(6-(2,2-difluorobenzo[d][1,3]dioxol-5-yl)-2-oxo-2,3-dihydropyridin-3-yl)-3-methylbutylidene)oxazolidine-2,4-dione]",IC50,EP3 receptor [1],7600 nM
same,Ki,EP3 receptor [2],5650 nM
